The NIST ThermoML archive (doi:10.1021/je400130b)
Where “and” joins values, the source holds several entries; their conditions need not be identical. Identical values can stand only once.

Assay: molar heat capacity at constant pressure
Conditions: 101.33 kPa, Crystal, Small (less than 1 g) adiabatic calorimetry

O=S(=O)([O-])[O-].[Cu+2].[Cu+2].[Cu+2].[OH-].[OH-].[OH-].[OH-] [copper(II) tetrahydroxide sulfate]
Conditions	molar heat capacity at constant pressure
4 K	4.402 J/K/mol
4.276 K	3.87 J/K/mol
4.321 K	4.927 J/K/mol
4.467 K	6.058 J/K/mol
4.5 K	6.267 J/K/mol
4.571 K	6.664 J/K/mol
4.751 K	7.35 J/K/mol
4.944 K	8.855 J/K/mol and 8.884 J/K/mol
5 K	9.138 J/K/mol
5.109 K	9.647 J/K/mol
5.218 K	10.19 J/K/mol
5.281 K	10.29 J/K/mol
5.461 K	10.03 J/K/mol
5.496 K	9.756 J/K/mol
5.659 K	8.612 J/K/mol
5.818 K	7.934 J/K/mol
5.864 K	7.741 J/K/mol
6 K	7.452 J/K/mol
6.058 K	7.363 J/K/mol
6.147 K	7.235 J/K/mol
6.298 K	7.044 J/K/mol
6.566 K	6.796 J/K/mol
6.592 K	6.689 J/K/mol
6.889 K	6.159 J/K/mol
7 K	6.491 J/K/mol
7.099 K	6.461 J/K/mol
7.18 K	6.397 J/K/mol
7.46 K	6.264 J/K/mol
7.635 K	6.223 J/K/mol
7.743 K	6.172 J/K/mol
8 K	6.095 J/K/mol
8.024 K	6.079 J/K/mol
8.159 K	6.056 J/K/mol
8.304 K	6.014 J/K/mol
8.585 K	5.956 J/K/mol
8.67 K	5.936 J/K/mol
8.866 K	5.89 J/K/mol
9 K	5.868 J/K/mol
9.144 K	5.841 J/K/mol
9.172 K	5.855 J/K/mol
9.421 K	5.784 J/K/mol
9.668 K	5.798 J/K/mol
9.696 K	5.748 J/K/mol
9.972 K	5.754 J/K/mol
10 K	5.75 J/K/mol
10.16 K	5.732 J/K/mol
10.63 K	5.745 J/K/mol
10.93 K	5.732 J/K/mol
11.68 K	5.739 J/K/mol
11.98 K	5.75 J/K/mol
12.74 K	5.81 J/K/mol
13.03 K	5.85 J/K/mol
13.78 K	5.989 J/K/mol
14.06 K	6.069 J/K/mol
14.8 K	6.285 J/K/mol
15 K	6.341 J/K/mol
15.07 K	6.393 J/K/mol
15.81 K	6.636 J/K/mol
16.07 K	6.722 J/K/mol
16.8 K	6.975 J/K/mol
17.07 K	7.117 J/K/mol
17.8 K	7.522 J/K/mol
18.06 K	7.677 J/K/mol
18.78 K	8.087 J/K/mol
19.04 K	8.238 J/K/mol
19.76 K	8.67 J/K/mol
20 K	8.85 J/K/mol
20.02 K	8.833 J/K/mol
21.22 K	9.779 J/K/mol
21.5 K	9.988 J/K/mol
23.18 K	11.26 J/K/mol
23.46 K	11.52 J/K/mol
25 K	12.91 J/K/mol
25.15 K	13.02 J/K/mol
27.12 K	14.99 J/K/mol
29.09 K	17.14 J/K/mol
30 K	18.13 J/K/mol
31.06 K	19.35 J/K/mol
33.03 K	21.62 J/K/mol
34.81 K	23.66 J/K/mol
35 K	24 J/K/mol
35.01 K	23.95 J/K/mol
36.98 K	26.35 J/K/mol
37.09 K	26.53 J/K/mol
38.96 K	28.94 J/K/mol
39.07 K	29.08 J/K/mol
40 K	30.19 J/K/mol
41.04 K	31.63 J/K/mol
43.02 K	34.11 J/K/mol
44.99 K	36.64 J/K/mol
45 K	36.59 J/K/mol
46.97 K	39.09 J/K/mol
48.95 K	41.56 J/K/mol
50 K	43.07 J/K/mol
50.93 K	44.19 J/K/mol
52.91 K	46.98 J/K/mol
54.89 K	49.62 J/K/mol
55 K	49.46 J/K/mol
56.88 K	51.68 J/K/mol
58.87 K	53.87 J/K/mol
60 K	55.63 J/K/mol
60.86 K	56.7 J/K/mol
62.84 K	59.19 J/K/mol
64.84 K	61.5 J/K/mol
65 K	61.62 J/K/mol
66.82 K	63.78 J/K/mol
68.81 K	66.04 J/K/mol
70 K	67.43 J/K/mol
70.81 K	68.24 J/K/mol
73.31 K	71.15 J/K/mol
75 K	73.06 J/K/mol
76.31 K	74.53 J/K/mol
79.15 K	77.5 J/K/mol
79.33 K	77.85 J/K/mol
80 K	78.53 J/K/mol
82.35 K	81.16 J/K/mol
82.87 K	81.56 J/K/mol
85 K	83.89 J/K/mol
85.92 K	84.81 J/K/mol
87.61 K	86.67 J/K/mol
88.97 K	88.01 J/K/mol
90 K	89.13 J/K/mol
91.38 K	90.45 J/K/mol
92.02 K	91.18 J/K/mol
94.44 K	93.68 J/K/mol
95 K	94.27 J/K/mol
95.08 K	94.4 J/K/mol
97.53 K	96.77 J/K/mol
98.16 K	97.48 J/K/mol
100 K	99.3 J/K/mol
100.62 K	99.85 J/K/mol
101.24 K	100.56 J/K/mol
103.71 K	102.89 J/K/mol
104.33 K	103.67 J/K/mol
106.81 K	105.92 J/K/mol
107.42 K	106.61 J/K/mol
109.92 K	109.04 J/K/mol
110 K	109.1 J/K/mol
110.53 K	109.61 J/K/mol
113.05 K	112.01 J/K/mol
113.64 K	112.58 J/K/mol
116.17 K	114.94 J/K/mol
116.76 K	115.5 J/K/mol
119.31 K	118.07 J/K/mol
119.89 K	118.47 J/K/mol
120 K	118.6 J/K/mol
122.46 K	120.84 J/K/mol
123.02 K	121.58 J/K/mol
125.61 K	123.78 J/K/mol
126.17 K	124.44 J/K/mol
128.76 K	126.79 J/K/mol
129.34 K	127.55 J/K/mol
130 K	128.1 J/K/mol
131.93 K	129.76 J/K/mol
132.5 K	130.3 J/K/mol
135.11 K	132.59 J/K/mol
135.67 K	133.23 J/K/mol
138.3 K	135.82 J/K/mol
138.84 K	136.39 J/K/mol
140 K	137.4 J/K/mol
141.49 K	138.48 J/K/mol
142.03 K	139.28 J/K/mol
